In the supplement of paper PMC10307832:

Legend:
Test in all cases: relative viability (nuclei count vs DMSO), 5 days (fraction); higher = more cells survive
Palbociclib + Luminespib = compound: CC(=O)c1c(C)c2cnc(Nc3ccc(N4CCNCC4)cn3)nc2n(C2CCCC2)c1=O [Palbociclib] + CCNC(=O)c1noc(-c2cc(C(C)C)c(O)cc2O)c1-c1ccc(CN2CCOCC2)cc1 [Luminespib] (partner 0.01 µM)
In short: (§1)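 Nuclei were stained with Hoechst during a one-step fixation (final 0.05% Triton X-100, 1% formaldehyde, 1 ug/ml Hoechst) carried out 5 days after dosing, then counted on 4× images. The cells, lung cancer lines in 1536-well plates, had been dosed by pin tool the day after seeding with one drug alone or a fixed anchor-drug dose plus five library-drug doses (not always all listed) in √10 steps. Relative viability is the nuclei count in treated wells divided by that in vehicle wells, and each value is the median of duplicate plates.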

Palbociclib + OSI-027 = compound: CC(=O)c1c(C)c2cnc(Nc3ccc(N4CCNCC4)cn3)nc2n(C2CCCC2)c1=O [Palbociclib] + COc1cccc2cc(-c3nc([C@H]4CC[C@H](C(=O)O)CC4)n4ncnc(N)c34)[nH]c12 [OSI-027] (partner 0.5 µM)
In short: as §1

Palbociclib + Lapatinib = compound: CC(=O)c1c(C)c2cnc(Nc3ccc(N4CCNCC4)cn3)nc2n(C2CCCC2)c1=O [Palbociclib] + CS(=O)(=O)CCNCc1ccc(-c2ccc3ncnc(Nc4ccc(OCc5cccc(F)c5)c(Cl)c4)c3c2)o1 [Lapatinib] (partner 2 µM)
In short: as §1

Palbociclib + Decitabine = compound: CC(=O)c1c(C)c2cnc(Nc3ccc(N4CCNCC4)cn3)nc2n(C2CCCC2)c1=O [Palbociclib] + Nc1ncn([C@H]2C[C@H](O)[C@@H](CO)O2)c(=O)n1 [Decitabine] (partner 2 µM)
In short: as §1

Cell Line | relative viability (Palbociclib + Luminespib; first compound 0.01 µM) | relative viability (Palbociclib + Luminespib; first compound 0.03162 µM) | relative viability (Palbociclib + Luminespib; first compound 0.1 µM) | relative viability (Palbociclib + Luminespib; first compound 0.3162 µM) | relative viability (Palbociclib + Luminespib; first compound 1 µM) | relative viability (Palbociclib + OSI-027; first compound 0.01 µM) | relative viability (Palbociclib + OSI-027; first compound 0.03162 µM) | relative viability (Palbociclib + OSI-027; first compound 0.1 µM) | relative viability (Palbociclib + OSI-027; first compound 0.3162 µM) | relative viability (Palbociclib + OSI-027; first compound 1 µM) | relative viability (Palbociclib + Lapatinib; first compound 0.01 µM) | relative viability (Palbociclib + Lapatinib; first compound 0.1 µM) | relative viability (Palbociclib + Lapatinib; first compound 0.3162 µM) | relative viability (Palbociclib + Lapatinib; first compound 1 µM) | relative viability (Palbociclib + Decitabine; first compound 0.01 µM) | relative viability (Palbociclib + Decitabine; first compound 0.1 µM) | relative viability (Palbociclib + Decitabine; first compound 0.3162 µM) | relative viability (Palbociclib + Decitabine; first compound 1 µM) | relative viability (Palbociclib + Lapatinib; first compound 0.03162 µM) | relative viability (Palbociclib + Decitabine; first compound 0.03162 µM)
NCI-H650 | 0.921 | 0.613 | 0.629 | 0.793 | 0.609 | 0.53 | 0.309 | 0.393 | 0.376 | 0.331 | 1.3 | 0.657 | 0.818 | 0.434 | 0.305 | 0.31 | 0.306 | 0.354 |  | 
Calu-6 |  |  |  |  |  |  |  |  |  |  | 1.07 | 0.855 | 0.709 | 0.53 |  |  |  |  | 0.897 | 
LCLC-97TM1 | 0.666 | 0.702 | 0.684 | 0.486 | 0.281 | 0.586 | 0.353 | 0.349 | 0.219 | 0.221 | 0.891 | 0.894 | 0.697 | 0.304 | 0.23 | 0.231 | 0.239 | 0.198 |  | 
NCI-H441 | 0.317 | 0.371 | 0.38 | 0.26 | 0.229 | 0.56 | 0.394 | 0.407 | 0.405 | 0.213 |  |  |  |  | 0.22 | 0.241 | 0.241 | 0.236 |  | 0.244
NCI-H522 | 1.2 |  | 1.19 | 1.19 | 1.18 | 0.772 | 0.606 | 0.777 | 0.765 | 0.765 |  |  |  |  | 0.749 | 0.635 | 0.736 | 0.709 |  | 0.646
NCI-H2347 | 0.41 |  | 0.366 | 0.429 | 0.453 | 0.467 |  | 0.402 | 0.379 | 0.308 | 0.957 | 0.71 | 0.682 | 0.751 | 0.597 | 0.599 | 0.585 | 0.504 | 0.823 | 0.656
NCI-H2228 | 0.173 | 0.182 | 0.149 | 0.126 | 0.098 | 0.529 | 0.373 | 0.389 | 0.492 | 0.48 | 1.26 | 0.923 | 0.95 | 0.959 |  |  |  |  | 0.909 | 
NCI-H1355 | 0.74 | 0.776 | 0.811 | 0.568 | 0.521 | 0.45 | 0.359 | 0.33 | 0.282 | 0.24 | 0.949 | 0.901 | 0.793 | 0.523 | 0.348 | 0.352 | 0.351 | 0.342 |  | 0.379
HCC-44 | 0.933 | 1.01 | 1.02 | 1.35 | 1.11 | 0.487 | 0.492 | 0.512 | 0.582 | 0.482 | 0.886 | 0.978 | 0.979 | 1.02 | 0.944 | 0.948 | 0.873 | 1 | 0.939 | 0.866
NCI-H1650 | 0.178 | 0.211 | 0.186 | 0.186 | 0.172 | 0.701 | 0.404 | 0.522 | 0.481 | 0.403 | 0.774 | 0.263 | 0.578 | 0.351 | 0.414 | 0.474 | 0.421 | 0.349 | 0.258 | 0.427
